Test results as given in article PMC6071684, “Defining the hydrophobic interactions that drive competence stimulating peptide (CSP)-ComD binding in Streptococcus pneumoniae” (Beilstein Journal of Organic Chemistry, 2018).
Where a SMILES comes first, the peptide text is derived from it. Where no end group is shown, it is not given here. [ ]: non-standard residue; d: D form. Phg = N[C@H](C(=O)O)c1ccccc1; Nle = CCCC[C@H](N)C(=O)O; Nva = CCC[C@H](N)C(=O)O

Tests used:
ComD1 receptor = ComD1 receptor (Streptococcus pneumoniae serotype 2, UniProt A0A0H2ZM50); test: cell-based
Description: (§1) To assess QS modulation, we utilized the β-gal reporter strains, constructed by Lau and co-worker. In these strains the lacZ gene is under the control of QS (pcomX). Thus, upon QS activation, ComE will bind pcomX and transcribe lacZ (in addition to upregulation of ComX). ComD modulation can therefore be quantified by measuring β-gal activity. The peptides were first screened for their ability to activate/inhibit the ComD1 and ComD2 receptors at high concentration (10 µM).
(§2) To examine the ability of the synthesized CSP analogs to modulate the ComD receptors, and thus the QS circuit in S. pneumoniae, β-galactosidase assays were performed using D39pcomX::lacZ (group I) and TIGR4pcomX::lacZ (group II) reporter strains as described in [19].
(§3) Bacterial growth conditions. Bacteria from a freezer stock were grown as described in [19]. Briefly, the bacteria were streaked into a THY agar plate supplemented with 5% donor horse serum and chloramphenicol at a final concentration of 4 µg/mL. The plate was incubated for 8 h in a CO2 incubator (37 °C with 5% CO2). Fresh colonies (single colony for D39pcomX::lacZ; multiple colonies for TIGR4pcomX::lacZ) were picked into sterilized cultural tubes containing 5 mL of THY broth supplemented with chloramphenicol at a final concentration of 4 µg/mL and the cultures were incubated in a CO2 incubator overnight (15 h). Overnight cultures were then diluted (1:50 for D39pcomX::lacZ; 1:10 for TIGR4pcomX::lacZ) with THY and the resulting solution was incubated in a CO2 incubator for 3–4 hours, until the bacteria reached early exponential stage (0.30–0.35 for D39pcomX::lacZ; 0.20–0.25 for TIGR4pcomX::lacZ) as determined by using a plate reader.
(§4) β-Galactosidase assay. Activation assays. […] Briefly, an initial activation screening was performed at high concentration (10 µM) for all CSP analogs. 2 µL of 1 mM solution of CSP analogs in dimethyl sulfoxide (DMSO) were added in triplicate to a clear 96-well microtiter plate. […] 2 µL of DMSO was added in triplicate and served as the negative control for both groups. Then, 198 µL of bacterial culture was added to each well containing CSP and analogs, the plate was incubated at 37 °C for 30 minutes, and the OD600nm was measured. In order to measure the β-galactosidase activity in the pneumococcal culture, the cells were lysed by incubating the culture for 30 minutes at 37 °C with 20 µL of 0.1% Triton X-100. In a new plate, 100 µL of Z-buffer solution (60.2 mM Na2HPO4, 45.8 mM NaH2PO4, 10 mM KCl, and 1.0 mM MgSO4 in 18 MΩ H2O; pH was adjusted to 7.0 and the buffer was sterilized before use) containing 2-nitrophenyl-β-D-galactopyranoside (ONPG) at a final concentration of 0.4 mg/mL was added, followed by 100 µL of lysate, and the plate was incubated for 3 hours at 37 °C. The reaction was stopped by adding 50 µL of 1 M sodium carbonate solution, and the OD420nm and OD550nm were measured using a plate reader. […] For calculation of Miller units, please see data analysis below.
(§5) Analysis of activation/inhibition data. Miller units were calculated using the following formula: […]
(§6) Abs420 is the absorbance of ortho-nitrophenol (ONP). Abs550 is the scatter from cell debris, which, when multiplied by 1.75 approximates the scatter observed at 420 nm. t is the duration of incubation with ONPG in minutes, v is volume of lysate in milliliters, and Abs600 reflects cell density.

ComD2 receptor = ComD2 receptor (Streptococcus pneumoniae serotype 4, UniProt A0A0H2US84); test: cell-based; conditions: for ComD2 primary agonism screening: low induction, EC50 not determined: TIGR4pcomX::lacZ, 10 µM peptide, only analogs with greater than 75% activation compared to CSP2 were taken to EC50
Description: as §1, §2, §3, §4, §5, §6

[1] = biological target: ComD1 receptor (S. pneumoniae (endogenous in D39pcomX::lacZ))

Sequence of ComD2 receptor (A0A0H2US84 entry or part of it): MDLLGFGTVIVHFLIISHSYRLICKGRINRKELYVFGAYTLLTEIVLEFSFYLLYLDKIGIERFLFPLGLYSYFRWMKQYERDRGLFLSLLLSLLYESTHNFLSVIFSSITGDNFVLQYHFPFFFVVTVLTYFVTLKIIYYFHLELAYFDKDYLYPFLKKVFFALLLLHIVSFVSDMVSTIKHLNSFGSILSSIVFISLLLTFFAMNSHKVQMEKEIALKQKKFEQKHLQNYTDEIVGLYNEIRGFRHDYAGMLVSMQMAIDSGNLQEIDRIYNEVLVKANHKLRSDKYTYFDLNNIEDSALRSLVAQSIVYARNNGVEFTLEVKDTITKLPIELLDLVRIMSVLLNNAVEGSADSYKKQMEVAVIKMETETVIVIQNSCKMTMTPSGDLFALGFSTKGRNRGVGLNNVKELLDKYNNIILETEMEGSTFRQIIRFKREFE
Sequence of ComD1 receptor (A0A0H2ZM50 entry or part of it): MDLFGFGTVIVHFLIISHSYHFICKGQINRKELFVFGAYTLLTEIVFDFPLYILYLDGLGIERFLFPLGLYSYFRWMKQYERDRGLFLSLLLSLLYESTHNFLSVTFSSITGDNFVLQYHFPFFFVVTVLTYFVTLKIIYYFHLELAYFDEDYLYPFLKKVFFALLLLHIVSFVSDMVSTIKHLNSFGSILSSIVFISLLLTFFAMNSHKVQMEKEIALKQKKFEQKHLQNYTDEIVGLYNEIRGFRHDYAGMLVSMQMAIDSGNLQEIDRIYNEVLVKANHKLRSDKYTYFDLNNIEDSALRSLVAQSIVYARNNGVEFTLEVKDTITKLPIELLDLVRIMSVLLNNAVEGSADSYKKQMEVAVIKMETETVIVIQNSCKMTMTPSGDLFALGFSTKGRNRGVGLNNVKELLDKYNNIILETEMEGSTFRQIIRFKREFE

## CC[C@H](C)[C@H](NC(=O)[C@H](CCc1ccccc1)NC(=O)[C@H](CC(=O)O)NC(=O)[C@H](CCCNC(=N)N)NC(=O)[C@H](Cc1ccccc1)NC(=O)[C@H](Cc1ccccc1)NC(=O)[C@H](CCCCN)NC(=O)[C@H](CO)NC(=O)[C@H](CC(C)C)NC(=O)[C@H](CCCNC(=N)N)NC(=O)[C@H](CCSC)NC(=O)[C@@H](N)CCC(=O)O)C(=O)N[C@@H](CC(C)C)C(=O)N[C@@H](CCC(N)=O)C(=O)N[C@@H](CCCNC(=N)N)C(=O)N[C@@H](CCCCN)C(=O)N[C@@H](CCCCN)C(=O)O [CSP1-F11HF]
ComD1 receptor
  EC50: 65.8 nM
ComD2 receptor
  EC50: > 1000 nM

## CSP1-F7Y (peptide)
[1]
  EC50 of activation of pcomX::lacZ (β-galactosidase) in reporter strain D39pcomX::lacZ (group I, ComD1): 344 nM

## CC[C@H](C)[C@H](NC(=O)[C@H](Cc1ccccc1)NC(=O)[C@H](CC(=O)O)NC(=O)[C@H](CCCNC(=N)N)NC(=O)[C@@H](NC(=O)[C@H](Cc1ccccc1)NC(=O)[C@H](CCCCN)NC(=O)[C@H](CO)NC(=O)[C@H](CC(C)C)NC(=O)[C@H](CCCNC(=N)N)NC(=O)[C@H](CCSC)NC(=O)[C@@H](N)CCC(=O)O)c1ccccc1)C(=O)N[C@@H](CC(C)C)C(=O)N[C@@H](CCC(N)=O)C(=O)N[C@@H](CCCNC(=N)N)C(=O)N[C@@H](CCCCN)C(=O)N[C@@H](CCCCN)C(=O)O [CSP1-F8FG] (H-EMRLSKF[Phg]RDFILQRKK-OH; N-terminus assumed)
ComD1 receptor
  EC50: 884 nM
ComD2 receptor
  ComD2 primary agonism screening: low induction, EC50 not determined: –^e

## CC[C@H](C)[C@H](NC(=O)[C@H](Cc1ccccc1)NC(=O)[C@H](CC(=O)O)NC(=O)[C@H](CCCNC(=N)N)NC(=O)[C@H](Cc1ccccc1)NC(=O)[C@H](CCc1ccccc1)NC(=O)[C@H](CCCCN)NC(=O)[C@H](CO)NC(=O)[C@H](CC(C)C)NC(=O)[C@H](CCCNC(=N)N)NC(=O)[C@H](CCSC)NC(=O)[C@@H](N)CCC(=O)O)C(=O)N[C@@H](CC(C)C)C(=O)N[C@@H](CCC(N)=O)C(=O)N[C@@H](CCCNC(=N)N)C(=O)N[C@@H](CCCCN)C(=O)N[C@@H](CCCCN)C(=O)O [CSP1-F7HF]
ComD1 receptor
  EC50: 81.7 nM
ComD2 receptor
  EC50: 317 nM

## CCC[C@H](NC(=O)[C@@H](NC(=O)[C@H](Cc1ccccc1)NC(=O)[C@H](CC(=O)O)NC(=O)[C@H](CCCNC(=N)N)NC(=O)[C@H](Cc1ccccc1)NC(=O)[C@H](Cc1ccccc1)NC(=O)[C@H](CCCCN)NC(=O)[C@H](CO)NC(=O)[C@H](CC(C)C)NC(=O)[C@H](CCCNC(=N)N)NC(=O)[C@H](CCSC)NC(=O)[C@@H](N)CCC(=O)O)[C@@H](C)CC)C(=O)N[C@@H](CCC(N)=O)C(=O)N[C@@H](CCCNC(=N)N)C(=O)N[C@@H](CCCCN)C(=O)N[C@@H](CCCCN)C(=O)O [CSP1-L13NV] (H-EMRLSKFFRDFI[Nva]QRKK-OH; N-terminus assumed)
ComD1 receptor
  EC50: 15.2 nM
ComD2 receptor
  EC50: > 1000 nM

## CC[C@H](C)[C@H](NC(=O)[C@H](Cc1ccccc1)NC(=O)[C@H](CC(=O)O)NC(=O)[C@H](CCCNC(=N)N)NC(=O)[C@H](Cc1ccccc1)NC(=O)[C@@H](NC(=O)[C@H](CCCCN)NC(=O)[C@H](CO)NC(=O)[C@H](CC(C)C)NC(=O)[C@H](CCCNC(=N)N)NC(=O)[C@H](CCSC)NC(=O)[C@@H](N)CCC(=O)O)c1ccccc1)C(=O)N[C@@H](CC(C)C)C(=O)N[C@@H](CCC(N)=O)C(=O)N[C@@H](CCCNC(=N)N)C(=O)N[C@@H](CCCCN)C(=O)N[C@@H](CCCCN)C(=O)O [CSP1-F7FG] (H-EMRLSK[Phg]FRDFILQRKK-OH; N-terminus assumed)
ComD1 receptor
  EC50: 81.3 nM
ComD2 receptor
  EC50: 828 nM

## CSP1-F8FG (peptide)
[1]
  EC50 of activation of pcomX::lacZ (β-galactosidase) in reporter strain D39pcomX::lacZ (group I, ComD1): 884 nM

## CSP1-I12V (peptide)
[1]
  EC50 of activation of pcomX::lacZ (β-galactosidase) in reporter strain D39pcomX::lacZ (group I, ComD1): 15.3 nM

## CSP1-L4V (peptide)
[1]
  EC50 of activation of pcomX::lacZ (β-galactosidase) in reporter strain D39pcomX::lacZ (group I, ComD1): 113 nM

## CCCC[C@H](NC(=O)[C@@H](NC(=O)[C@H](Cc1ccccc1)NC(=O)[C@H](CC(=O)O)NC(=O)[C@H](CCCNC(=N)N)NC(=O)[C@H](Cc1ccccc1)NC(=O)[C@H](Cc1ccccc1)NC(=O)[C@H](CCCCN)NC(=O)[C@H](CO)NC(=O)[C@H](CC(C)C)NC(=O)[C@H](CCCNC(=N)N)NC(=O)[C@H](CCSC)NC(=O)[C@@H](N)CCC(=O)O)[C@@H](C)CC)C(=O)N[C@@H](CCC(N)=O)C(=O)N[C@@H](CCCNC(=N)N)C(=O)N[C@@H](CCCCN)C(=O)N[C@@H](CCCCN)C(=O)O [CSP1-L13NL]
ComD1 receptor
  EC50: 18.6 nM
ComD2 receptor
  EC50: > 1000 nM

## CCC[C@H](NC(=O)[C@H](Cc1ccccc1)NC(=O)[C@H](CC(=O)O)NC(=O)[C@H](CCCNC(=N)N)NC(=O)[C@H](Cc1ccccc1)NC(=O)[C@H](Cc1ccccc1)NC(=O)[C@H](CCCCN)NC(=O)[C@H](CO)NC(=O)[C@H](CC(C)C)NC(=O)[C@H](CCCNC(=N)N)NC(=O)[C@H](CCSC)NC(=O)[C@@H](N)CCC(=O)O)C(=O)N[C@@H](CC(C)C)C(=O)N[C@@H](CCC(N)=O)C(=O)N[C@@H](CCCNC(=N)N)C(=O)N[C@@H](CCCCN)C(=O)N[C@@H](CCCCN)C(=O)O [CSP1-I12NV] (H-EMRLSKFFRDF[Nva]LQRKK-OH; N-terminus assumed)
ComD1 receptor
  EC50: 13.8 nM
ComD2 receptor
  EC50: 853 nM

## CCC[C@H](NC(=O)[C@H](CCCNC(=N)N)NC(=O)[C@H](CCSC)NC(=O)[C@@H](N)CCC(=O)O)C(=O)N[C@@H](CO)C(=O)N[C@@H](CCCCN)C(=O)N[C@@H](Cc1ccccc1)C(=O)N[C@@H](Cc1ccccc1)C(=O)N[C@@H](CCCNC(=N)N)C(=O)N[C@@H](CC(=O)O)C(=O)N[C@@H](Cc1ccccc1)C(=O)N[C@H](C(=O)N[C@@H](CC(C)C)C(=O)N[C@@H](CCC(N)=O)C(=O)N[C@@H](CCCNC(=N)N)C(=O)N[C@@H](CCCCN)C(=O)N[C@@H](CCCCN)C(=O)O)[C@@H](C)CC [CSP1-L4NV] (H-EMR[Nva]SKFFRDFILQRKK-OH; N-terminus assumed)
ComD1 receptor
  EC50: 5.74 nM
ComD2 receptor
  EC50: 627 nM

## CCCC[C@H](NC(=O)[C@H](Cc1ccccc1)NC(=O)[C@H](CC(=O)O)NC(=O)[C@H](CCCNC(=N)N)NC(=O)[C@H](Cc1ccccc1)NC(=O)[C@H](Cc1ccccc1)NC(=O)[C@H](CCCCN)NC(=O)[C@H](CO)NC(=O)[C@H](CC(C)C)NC(=O)[C@H](CCCNC(=N)N)NC(=O)[C@H](CCSC)NC(=O)[C@@H](N)CCC(=O)O)C(=O)N[C@@H](CC(C)C)C(=O)N[C@@H](CCC(N)=O)C(=O)N[C@@H](CCCNC(=N)N)C(=O)N[C@@H](CCCCN)C(=O)N[C@@H](CCCCN)C(=O)O [CSP1-I12NL] (H-EMRLSKFFRDF[Nle]LQRKK-OH; N-terminus assumed)
ComD1 receptor
  EC50: 6.68 nM
ComD2 receptor
  EC50: > 1000 nM

## CSP1-L13V (peptide)
[1]
  EC50 of activation of pcomX::lacZ (β-galactosidase) in reporter strain D39pcomX::lacZ (group I, ComD1): 31 nM

## competence stimulating peptide 1 (CSP1) (from UniProt P60242 25-41)
[1]
  EC50 of activation of pcomX::lacZ (β-galactosidase) in reporter strain D39pcomX::lacZ (group I, ComD1): 10.3 nM

## EMRISKFFRDFILQRKK-OH [CSP1-L4I]
ComD1 receptor
  EC50: 10.2 nM
ComD2 receptor
  EC50: > 1000 nM

## EMRLSKYFRDFILQRKK-OH [CSP1-F7Y]
ComD1 receptor
  EC50: 344 nM
ComD2 receptor
  ComD2 primary agonism screening: low induction, EC50 not determined: –^e

## CC[C@H](C)[C@H](NC(=O)[C@@H](NC(=O)[C@H](CC(=O)O)NC(=O)[C@H](CCCNC(=N)N)NC(=O)[C@H](Cc1ccccc1)NC(=O)[C@H](Cc1ccccc1)NC(=O)[C@H](CCCCN)NC(=O)[C@H](CO)NC(=O)[C@H](CC(C)C)NC(=O)[C@H](CCCNC(=N)N)NC(=O)[C@H](CCSC)NC(=O)[C@@H](N)CCC(=O)O)c1ccccc1)C(=O)N[C@@H](CC(C)C)C(=O)N[C@@H](CCC(N)=O)C(=O)N[C@@H](CCCNC(=N)N)C(=O)N[C@@H](CCCCN)C(=O)N[C@@H](CCCCN)C(=O)O [CSP1-F11FG] (H-EMRLSKFFRD[Phg]ILQRKK-OH; N-terminus assumed)
ComD1 receptor
  EC50: > 1000 nM
ComD2 receptor
  EC50: > 1000 nM

## EMRVSKFFRDFILQRKK-OH [CSP1-L4V]
ComD1 receptor
  EC50: 113 nM
ComD2 receptor
  ComD2 primary agonism screening: low induction, EC50 not determined: –^e

## CSP1-F11Y (peptide)
[1]
  EC50 of activation of pcomX::lacZ (β-galactosidase) in reporter strain D39pcomX::lacZ (group I, ComD1): 95.6 nM

## CSP1-F8Y (peptide)
[1]
  EC50 of activation of pcomX::lacZ (β-galactosidase) in reporter strain D39pcomX::lacZ (group I, ComD1): 85 nM
